Measurements: ChEMBL document CHEMBL1201862, “PubChem BioAssay data set” (2004)
Calls of active or inactive are those of the source.

Tests used:
[1] = target: Peroxisome proliferator-activated receptor gamma/Nuclear receptor corepressor 2 (Homo sapiens, UniProt P37231+Q9Y618); assay: Counterscreen for NR2E3 inverse agonists: TR-FRET-based biochemical high throughput dose response assay to identify inverse agonists of the interaction between peroxisome proliferator-activated receptor gamma (PPARg) and nuclear receptor co-repressor 2 (NCOR2).; format: functional
[2] = target: Photoreceptor-specific nuclear receptor (Homo sapiens, UniProt Q9Y5X4); assay: NR2E3 inverse agonists, dose response, biochemical, TR-FRET (AID 463256); format: functional
Sequence of Photoreceptor-specific nuclear receptor (Q9Y5X4 whole entry): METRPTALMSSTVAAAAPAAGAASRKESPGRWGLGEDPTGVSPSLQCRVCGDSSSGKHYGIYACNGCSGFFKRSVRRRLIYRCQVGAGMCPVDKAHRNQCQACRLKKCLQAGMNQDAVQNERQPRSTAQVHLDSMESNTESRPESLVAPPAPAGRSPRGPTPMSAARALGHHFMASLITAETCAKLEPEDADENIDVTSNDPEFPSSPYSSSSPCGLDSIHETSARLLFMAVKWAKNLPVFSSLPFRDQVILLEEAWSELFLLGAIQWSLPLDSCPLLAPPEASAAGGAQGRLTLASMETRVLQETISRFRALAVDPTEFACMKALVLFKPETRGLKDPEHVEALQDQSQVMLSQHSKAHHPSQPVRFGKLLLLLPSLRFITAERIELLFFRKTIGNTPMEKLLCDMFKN

Beta-galactosidase = Beta-galactosidase (Escherichia coli, UniProt Q8VNN2); assay: Dose response counterscreen for EBI2 assay utilizing the enzyme, b-galactosidase.; format: functional
Prothrombin = Prothrombin (Homo sapiens, UniProt P00734); assay: Thrombin 1536 HTS Dose Response Confirmation. [Related pubchem assays: 1046 (Thrombin 1536 HTS; hits were confirmed in this assay)]; format: functional
Vero = Vero cell cytotoxicity, cytotoxicity control for flavivirus capping enzyme inhibitors (AID 588742); format: functional; conditions: Chlorocebus sabaeus
INS1 = assay: beta cell apoptosis inhibitors, cytokine rescue, dose response, luminescence, retest (AID 449756); format: functional, cell-based; conditions: Rattus norvegicus;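 also: cell death triggered by IL-1 beta plus TNF-alpha plus IFN-gamma mixture; protective hits raise ATP signal compared with cytokine alone wells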
Large T antigen = Large T antigen (Simian virus 40, UniProt P03070); format: functional, Betapolyomavirus macacae;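 also: Confirmatory-stage PubChem screen for compounds that inhibit SV40 T antigen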
Sequence of Large T antigen (P03070 whole entry): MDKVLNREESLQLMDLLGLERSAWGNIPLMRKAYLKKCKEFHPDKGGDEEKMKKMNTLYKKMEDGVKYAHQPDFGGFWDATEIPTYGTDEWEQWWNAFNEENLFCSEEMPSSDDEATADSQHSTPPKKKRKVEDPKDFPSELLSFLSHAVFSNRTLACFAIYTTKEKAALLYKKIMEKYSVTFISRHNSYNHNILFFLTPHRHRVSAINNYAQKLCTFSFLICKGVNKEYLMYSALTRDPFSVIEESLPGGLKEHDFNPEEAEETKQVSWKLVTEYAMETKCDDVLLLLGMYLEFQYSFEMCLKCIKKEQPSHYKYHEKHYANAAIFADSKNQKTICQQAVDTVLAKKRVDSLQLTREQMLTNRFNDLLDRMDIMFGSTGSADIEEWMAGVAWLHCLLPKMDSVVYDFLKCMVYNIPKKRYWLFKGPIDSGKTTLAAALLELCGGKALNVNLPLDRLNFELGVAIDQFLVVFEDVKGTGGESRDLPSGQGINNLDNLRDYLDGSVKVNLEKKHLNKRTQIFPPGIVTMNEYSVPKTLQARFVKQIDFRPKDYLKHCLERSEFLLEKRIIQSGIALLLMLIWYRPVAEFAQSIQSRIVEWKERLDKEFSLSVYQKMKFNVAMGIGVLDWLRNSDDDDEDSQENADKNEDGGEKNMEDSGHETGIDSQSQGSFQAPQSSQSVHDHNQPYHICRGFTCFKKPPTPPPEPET

[3] = target: T1, Voltage-gated N-type calcium channel alpha-1B subunit/Amyloid beta A4 precursor protein-binding family A member 1 (Homo sapiens, UniProt Q00975+Q02410); format: protein assay
T1 sequence (Q00975 whole entry): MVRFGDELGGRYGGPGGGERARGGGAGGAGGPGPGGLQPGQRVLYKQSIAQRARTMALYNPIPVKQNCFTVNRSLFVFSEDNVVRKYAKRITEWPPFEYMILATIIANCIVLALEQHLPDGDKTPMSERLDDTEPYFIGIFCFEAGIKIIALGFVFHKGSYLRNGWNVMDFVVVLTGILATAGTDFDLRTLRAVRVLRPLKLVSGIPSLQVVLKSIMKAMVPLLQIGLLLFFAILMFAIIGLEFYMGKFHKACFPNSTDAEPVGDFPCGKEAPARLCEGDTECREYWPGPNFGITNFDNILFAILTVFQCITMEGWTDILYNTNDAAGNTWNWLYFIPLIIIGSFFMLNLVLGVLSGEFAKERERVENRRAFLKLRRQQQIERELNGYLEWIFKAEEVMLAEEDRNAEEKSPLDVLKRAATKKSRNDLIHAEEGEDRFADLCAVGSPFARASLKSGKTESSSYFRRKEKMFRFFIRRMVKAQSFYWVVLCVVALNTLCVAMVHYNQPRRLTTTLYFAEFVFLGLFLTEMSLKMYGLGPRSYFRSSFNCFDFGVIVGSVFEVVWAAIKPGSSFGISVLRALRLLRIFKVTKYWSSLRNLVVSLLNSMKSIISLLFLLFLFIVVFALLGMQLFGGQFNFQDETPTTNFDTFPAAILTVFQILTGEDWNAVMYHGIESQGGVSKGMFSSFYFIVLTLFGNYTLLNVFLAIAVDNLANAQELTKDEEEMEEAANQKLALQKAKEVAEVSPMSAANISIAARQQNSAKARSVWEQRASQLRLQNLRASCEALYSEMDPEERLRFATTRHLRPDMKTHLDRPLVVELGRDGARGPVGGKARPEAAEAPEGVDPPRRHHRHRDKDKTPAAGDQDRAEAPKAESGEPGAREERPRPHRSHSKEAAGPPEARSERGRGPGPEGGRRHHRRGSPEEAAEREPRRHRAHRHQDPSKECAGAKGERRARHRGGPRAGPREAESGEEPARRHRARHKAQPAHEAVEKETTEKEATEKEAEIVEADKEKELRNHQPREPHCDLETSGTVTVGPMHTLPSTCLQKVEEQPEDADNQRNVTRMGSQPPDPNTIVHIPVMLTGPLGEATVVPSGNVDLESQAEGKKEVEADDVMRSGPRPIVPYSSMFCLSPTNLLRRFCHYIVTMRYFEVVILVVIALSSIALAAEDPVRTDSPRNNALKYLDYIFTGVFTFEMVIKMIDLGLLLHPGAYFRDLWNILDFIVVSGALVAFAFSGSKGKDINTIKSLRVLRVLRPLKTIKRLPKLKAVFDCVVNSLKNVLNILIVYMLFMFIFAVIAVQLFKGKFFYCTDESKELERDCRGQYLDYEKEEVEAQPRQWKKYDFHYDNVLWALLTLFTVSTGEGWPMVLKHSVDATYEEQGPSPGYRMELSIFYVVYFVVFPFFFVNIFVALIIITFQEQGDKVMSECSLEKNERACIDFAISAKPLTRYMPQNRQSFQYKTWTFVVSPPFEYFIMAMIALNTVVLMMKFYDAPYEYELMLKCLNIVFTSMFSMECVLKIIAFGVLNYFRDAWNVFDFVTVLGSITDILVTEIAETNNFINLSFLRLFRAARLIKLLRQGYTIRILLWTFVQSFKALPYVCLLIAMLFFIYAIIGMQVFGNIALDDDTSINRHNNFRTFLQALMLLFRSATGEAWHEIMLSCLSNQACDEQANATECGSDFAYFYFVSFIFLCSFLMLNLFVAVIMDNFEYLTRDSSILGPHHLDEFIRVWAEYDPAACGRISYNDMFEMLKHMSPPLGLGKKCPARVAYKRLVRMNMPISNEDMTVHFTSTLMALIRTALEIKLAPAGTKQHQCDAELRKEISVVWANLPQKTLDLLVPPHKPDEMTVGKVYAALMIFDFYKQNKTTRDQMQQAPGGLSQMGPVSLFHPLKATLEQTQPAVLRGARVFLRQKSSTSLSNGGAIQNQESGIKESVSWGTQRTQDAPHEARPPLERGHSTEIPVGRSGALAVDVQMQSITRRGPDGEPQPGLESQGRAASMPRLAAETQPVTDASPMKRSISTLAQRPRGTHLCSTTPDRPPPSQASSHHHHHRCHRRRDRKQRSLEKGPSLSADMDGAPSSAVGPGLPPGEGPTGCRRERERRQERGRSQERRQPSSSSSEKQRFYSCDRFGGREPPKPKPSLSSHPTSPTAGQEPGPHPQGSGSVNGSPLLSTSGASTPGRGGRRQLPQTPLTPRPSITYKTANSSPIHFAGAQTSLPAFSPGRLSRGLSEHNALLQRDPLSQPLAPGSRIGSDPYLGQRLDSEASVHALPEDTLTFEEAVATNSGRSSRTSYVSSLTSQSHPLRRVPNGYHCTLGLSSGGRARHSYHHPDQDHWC
T1 sequence (Q02410 whole entry): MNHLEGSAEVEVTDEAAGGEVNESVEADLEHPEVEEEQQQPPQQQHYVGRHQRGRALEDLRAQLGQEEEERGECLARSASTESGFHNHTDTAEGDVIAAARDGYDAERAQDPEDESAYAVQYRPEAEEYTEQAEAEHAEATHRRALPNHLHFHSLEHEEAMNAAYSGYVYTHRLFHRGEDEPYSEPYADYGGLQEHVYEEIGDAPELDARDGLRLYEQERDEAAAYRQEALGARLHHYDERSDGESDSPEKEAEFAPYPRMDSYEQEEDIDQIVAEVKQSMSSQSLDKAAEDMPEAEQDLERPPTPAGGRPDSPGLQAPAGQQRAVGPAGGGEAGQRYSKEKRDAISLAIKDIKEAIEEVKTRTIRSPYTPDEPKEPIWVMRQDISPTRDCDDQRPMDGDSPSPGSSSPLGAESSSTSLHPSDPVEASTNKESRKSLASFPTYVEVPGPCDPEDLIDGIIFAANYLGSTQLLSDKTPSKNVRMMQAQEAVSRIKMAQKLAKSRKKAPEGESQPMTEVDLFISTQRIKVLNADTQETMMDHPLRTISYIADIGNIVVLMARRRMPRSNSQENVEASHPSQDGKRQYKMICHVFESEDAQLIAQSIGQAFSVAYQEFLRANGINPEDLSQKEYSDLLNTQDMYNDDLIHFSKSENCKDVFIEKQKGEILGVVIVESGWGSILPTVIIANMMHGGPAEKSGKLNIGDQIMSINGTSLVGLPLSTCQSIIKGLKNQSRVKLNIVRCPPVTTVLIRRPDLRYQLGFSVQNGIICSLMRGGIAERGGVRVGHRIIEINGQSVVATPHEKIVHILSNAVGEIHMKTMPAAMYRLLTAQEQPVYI

[4] = target: T1, Voltage-gated N-type calcium channel alpha-1B subunit/Amyloid beta A4 precursor protein-binding family A member 1; format: protein assay; remark: listed apart in the source
[5] = target: T2, Corticotropin-releasing factor receptor 2/Corticotropin-releasing factor-binding protein (Homo sapiens, UniProt P24387+Q13324); assay: Dose Response confirmation of uHTS hits for small molecule antagonists of the CRF-binding protein and CRF-R2 receptor complex.; format: functional; conditions: read-out: IC50_Mean
T2 sequence (Q13324 whole entry): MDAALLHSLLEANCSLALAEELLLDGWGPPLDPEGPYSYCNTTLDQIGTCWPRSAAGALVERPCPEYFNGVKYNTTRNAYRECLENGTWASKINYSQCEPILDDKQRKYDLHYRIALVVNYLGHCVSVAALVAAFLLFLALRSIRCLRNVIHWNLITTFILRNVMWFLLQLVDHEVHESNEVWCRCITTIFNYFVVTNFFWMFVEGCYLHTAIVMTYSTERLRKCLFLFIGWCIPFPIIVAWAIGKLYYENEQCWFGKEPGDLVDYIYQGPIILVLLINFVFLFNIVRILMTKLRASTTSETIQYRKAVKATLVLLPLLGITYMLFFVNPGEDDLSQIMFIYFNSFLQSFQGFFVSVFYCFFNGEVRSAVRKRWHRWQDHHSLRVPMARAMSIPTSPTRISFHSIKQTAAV
T2 sequence (P24387 whole entry): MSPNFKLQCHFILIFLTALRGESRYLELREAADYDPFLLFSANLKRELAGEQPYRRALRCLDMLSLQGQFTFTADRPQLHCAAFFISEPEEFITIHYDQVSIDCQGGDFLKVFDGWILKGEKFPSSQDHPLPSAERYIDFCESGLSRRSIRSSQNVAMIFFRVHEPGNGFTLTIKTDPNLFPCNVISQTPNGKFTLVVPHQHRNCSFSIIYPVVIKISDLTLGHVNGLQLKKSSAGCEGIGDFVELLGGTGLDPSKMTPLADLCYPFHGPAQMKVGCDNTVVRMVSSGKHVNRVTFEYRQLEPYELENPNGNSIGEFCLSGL

[6] = target: T2, Corticotropin-releasing factor receptor 2/Corticotropin-releasing factor-binding protein; assay: activators of CRF receptor 2 with binding protein – uHTS hits, confirmation (AID 602473); format: functional; conditions: read-out: EC50_Mean
[7] = target: T3, Calpain-2 catalytic subunit (Sus scrofa, UniProt P43367); assay: pig calpain II inhibitor potency, dose response, biochemical, fluorogenic peptide substrate (AID 1420); format: functional
T3 sequence (P43367 whole entry): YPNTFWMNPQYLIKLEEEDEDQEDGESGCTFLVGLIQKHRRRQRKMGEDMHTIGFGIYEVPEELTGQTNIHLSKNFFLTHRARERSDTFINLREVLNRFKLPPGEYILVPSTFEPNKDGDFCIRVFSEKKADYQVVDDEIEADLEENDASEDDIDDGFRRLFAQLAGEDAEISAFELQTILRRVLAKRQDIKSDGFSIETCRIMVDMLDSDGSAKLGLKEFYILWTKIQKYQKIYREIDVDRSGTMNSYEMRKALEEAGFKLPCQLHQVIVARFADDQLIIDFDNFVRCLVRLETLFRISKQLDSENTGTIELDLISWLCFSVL

Nonstructural protein 1 = Nonstructural protein 1 (Influenza A virus, UniProt Q194T2); format: functional, Influenza A virus (A/California/07/2009(H1N1))
[8] = target: T4, Polyadenylate-binding protein 1 (Homo sapiens, UniProt P11940); assay: PABP1 MLLE–PAM2 interaction inhibitors, dose response, miRNA deadenylation inhibitor project, biochemical, fluorescence polarization, Cy5-PAM2 peptide, secondary (AID 602260); format: functional; conditions: read-out: IC50_Mean
T4 sequence (P11940 whole entry): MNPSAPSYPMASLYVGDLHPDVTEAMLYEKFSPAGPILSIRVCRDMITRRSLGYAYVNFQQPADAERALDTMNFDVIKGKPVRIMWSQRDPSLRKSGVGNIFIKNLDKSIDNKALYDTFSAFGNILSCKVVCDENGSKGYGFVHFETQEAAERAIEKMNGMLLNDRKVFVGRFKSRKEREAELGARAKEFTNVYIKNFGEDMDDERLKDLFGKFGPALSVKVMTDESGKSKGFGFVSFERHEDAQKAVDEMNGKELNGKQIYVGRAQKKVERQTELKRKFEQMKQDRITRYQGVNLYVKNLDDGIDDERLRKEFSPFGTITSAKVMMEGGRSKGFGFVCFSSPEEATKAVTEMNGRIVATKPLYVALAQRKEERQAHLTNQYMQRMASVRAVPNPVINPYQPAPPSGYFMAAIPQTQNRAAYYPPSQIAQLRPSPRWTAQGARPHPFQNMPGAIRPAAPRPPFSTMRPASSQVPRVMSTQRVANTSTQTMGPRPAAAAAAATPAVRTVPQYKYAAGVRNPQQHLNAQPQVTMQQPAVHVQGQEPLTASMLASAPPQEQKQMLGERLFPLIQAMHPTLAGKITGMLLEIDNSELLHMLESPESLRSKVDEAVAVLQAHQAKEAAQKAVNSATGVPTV

[9] = target: T4, Polyadenylate-binding protein 1; assay: PABP1 MLLE–PAM2 binding inhibitor potency, dose response, biochemical, fluorescence polarization, FITC-PAM2 peptide (AID 602259); format: functional; conditions: read-out: IC50_Mean
[10] = target: T5, RNA-binding protein pos-1 (Caenorhabditis elegans, UniProt G5EF15); assay: inhibitors of POS-1/mex-3 RNA binding, dose response, biochemical, fluorescence polarization (AID 1964);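 also: purified POS-1 fused to maltose binding protein made in E. coli; potency of compounds blocking POS-1 binding to fluorescent RNA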
T5 sequence (G5EF15 whole entry): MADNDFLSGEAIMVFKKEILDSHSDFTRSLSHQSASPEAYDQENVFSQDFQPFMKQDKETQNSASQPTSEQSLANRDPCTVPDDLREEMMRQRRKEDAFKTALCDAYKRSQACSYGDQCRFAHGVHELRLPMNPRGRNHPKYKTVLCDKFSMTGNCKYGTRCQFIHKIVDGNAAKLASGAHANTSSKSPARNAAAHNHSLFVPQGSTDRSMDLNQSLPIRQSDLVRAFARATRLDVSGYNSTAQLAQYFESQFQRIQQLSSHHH

[11] = target: T6, Zinc finger protein mex-5 (Caenorhabditis elegans, UniProt Q9XUB2); assay: MEX-5/TCR-2 RNA interaction inhibitors, dose response, biochemical, C. elegans, fluorescence polarization (AID 1960)
T6 sequence (Q9XUB2 whole entry): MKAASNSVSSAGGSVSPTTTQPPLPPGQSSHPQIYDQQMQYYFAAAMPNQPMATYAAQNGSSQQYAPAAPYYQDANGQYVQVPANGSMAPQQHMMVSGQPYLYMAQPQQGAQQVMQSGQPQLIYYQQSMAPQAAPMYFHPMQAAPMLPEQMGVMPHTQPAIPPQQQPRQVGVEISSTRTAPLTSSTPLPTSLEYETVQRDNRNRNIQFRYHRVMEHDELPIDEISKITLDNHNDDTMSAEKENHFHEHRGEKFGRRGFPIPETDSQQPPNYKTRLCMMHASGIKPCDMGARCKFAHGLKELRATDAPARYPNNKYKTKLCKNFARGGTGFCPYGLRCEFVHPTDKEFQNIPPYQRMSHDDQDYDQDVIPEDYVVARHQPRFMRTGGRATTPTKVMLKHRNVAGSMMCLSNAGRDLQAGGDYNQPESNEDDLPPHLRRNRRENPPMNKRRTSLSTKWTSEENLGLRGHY

Genome polyprotein = Genome polyprotein (dengue virus type 2, UniProt P29990); assay: Dengue-2 NS5 methyltransferase inhibitors, primary screen, biochemical, confirmation dose response (AID 588689); format: functional

Structure (SMILES): O=C(COc1ccc(Br)cc1)N1CCN(c2ncccn2)CC1
- IC50 [1]: 8.99 µM (active)
- IC50 [2]: 10.1 µM (not active)
- IC50 (Beta-galactosidase): > 80 µM (inactive)

Structure (SMILES): Cc1c(Br)ccc(NC(=O)Cn2nc(-c3cccs3)ccc2=O)c1C
- IC50 [1]: 7.73 µM (active)
- IC50 [2]: 7.42 µM (active)

Structure (SMILES): O=C(COC(=O)Cn1cnc2ccccc2c1=O)Nc1cc(Cl)ccc1[N+](=O)[O-]
- IC50 (Prothrombin): 3.35 µM (active)

Structure (SMILES): COc1ccc(S(=O)(=O)N(C(=O)c2ccco2)c2cc3sc(=O)oc3c3ccccc23)cc1
- CC50 (Vero): 27.7 µM (active)
- AC50 (INS1): 4.56 µM (active)

Structure (SMILES): COc1ccc(-n2nc3c(N4CCC(C(=O)NCc5ccccc5C)CC4)nnc(C)c3c2C)cc1
- IC50 [1]: 1.44 µM (active)
- IC50 [2]: 2.01 µM (active)

Structure (SMILES): CC(=O)N(c1ccc2oc(=O)sc2c1)S(=O)(=O)c1cccs1
- IC50 (Large T antigen): 40.1 µM (active)

Structure (SMILES): COCCn1c(SCC(=O)Nc2ccc(C(N)=O)cc2)nc2c3ccccc3nc-2c1O
- IC50 [3]: 6.77 µM (active)
- IC50 [4]: > 50 µM (inactive)

Structure (SMILES): O=C(Cn1ncc2c3ccccc3nc-2c1O)NCC1CCN(Cc2ccccc2F)CC1
- IC50 [5]: > 47.1 µM (inactive)
- EC50 [6]: > 53 µM (inactive)

Structure (SMILES): Cc1ccc(Nc2c([N+](=O)[O-])ccc3c2=NC2(CCCCC2)N=3)cc1
- IC50 [7]: 1.58 µM (not active)
- IC50 (Nonstructural protein 1): 17.4 µM (active)
- IC50 [8]: > 66 µM (inactive)
- IC50 [9]: > 66 µM (inactive)

Structure (SMILES): CCCC(=O)Nc1nnc(Sc2ccc(N(C)C)cc2)s1
- IC50 [5]: > 47.1 µM (inactive)
- EC50 [6]: > 53 µM (inactive)

Structure (SMILES): COc1cc(NC(=O)CSc2nc(C3CC3)nc3ccccc23)cc(OC)c1
- IC50 [1]: 5.56 µM (active)
- IC50 [2]: 5.35 µM (active)

Structure (SMILES): O=C1C([N+](=O)[O-])=C(O)c2cccc3cccc1c23
- EC50 [10]: 12.6 µM (active)
- EC50 [11]: 9.23 µM (active)
- IC50 [3]: > 56.8 µM (not active)
- IC50 [4]: 31.2 µM (active)

Structure (SMILES): O=C1C(Cl)=CC(=Nc2ccc(O)cc2)C=C1Cl
- CC50 (Vero): 37.7 µM (active)
- IC50 (Genome polyprotein): 7.02 µM (active)
- IC50 [8]: > 66 µM (inactive)
- IC50 [9]: > 66 µM (inactive)

Structure (SMILES): C=CCNC(=O)/C(C#N)=C\c1cc(Cl)c(O)c(OCC)c1
- IC50 (Prothrombin): > 50 µM (not active)

Structure (SMILES): c1ccc(-c2csc(NNC3=NCCCCC3)n2)cc1
- IC50 (Large T antigen): 61.1 µM (active)
